The results in this text go back to patent US20230219890A1, “BICYCLIC COMPOUNDS AND USE THEREOF” (Betta Pharmaceuticals Co.,Ltd, priority 2020, published 2023).

Assay [1] concerns HIF2α reporter cells (786-O-HIF2α-Luc cells). Nature of the assay: Luciferase Assay (HIF2α reporter cells). The format is cell-based. Particulars: 18-20 h, Steady-Glo luminescence. As to the method: Luciferase LUC gene was transfected into 786-O cells (purchased from ATCC) using Lipofectamine 3000 Transfection Reagent (purchased from Invitrogen) to construct HIF2α reporter cells (786-O-HIF2α-Luc cells). Experiments were performed when 786-O-HIF2α-Luc cells were in logarithmic growth phase, culture medium (RPMI MEDIUM 1640, purchased from Invitrogen) was abandoned, the cells were rinsed with PBS three times; trypsin (TrypLE, purchased from invitrogen) was added to digest cells, the digestion was terminated by washing the cells with culture medium, 10% fetal bovine serum, 1% penicillin and streptomycin. The cells were collected by centrifugation, rinsed twice with PBS to remove the phenol red in the medium, and then resuspended the cells to an appropriate concentration, and detected the cell density and viability, and made sure the cell viability is above 90% before it can be used for experiments.
The gradient concentration compound was transferred into 384-well plate, 25 nl/well using Echo 550 (non-contact sonic pipetting system, purchased from Labcyte); the cells were seeded in 384-well plate, 4500 cells/well, with 25 μl of culture medium, to make the final concentrations as follows: 10000, 3333, 1111, 370, 123, 41.1, 13.7, 4.6, 1.5, 0.5 nM. Cells were incubated at 37° C., 5% CO2 for 18-20 h; Steady-Glo™ Luciferase Assay System (purchased from Promega) was added to 384 well-plate, 25 μl/well; the luminescence value was detected with Envision. The % inhibition rate was calculated according to the RLU (Record Luminescence) signal value of each well, and then the IC50 of the corresponding compound was calculated by Graphpad 8.0.

Assay [2] relates to VEGFA (786-O cells). Nature of the assay: VEGFA ELISA Assay (IC50). The format is cell-based. The settings on record: 24 hours incubation, VEGFA in culture supernatant by ELISA. The procedure:
786-O cells in exponential growth phase were seeded in 96-well plate, the cell concentration was 65,000 cells per milliliter of culture medium, 180 ul per well. Compounds were serial diluted to the indicated concentration, and 20 ul compound solutions of different concentrations were added to the corresponding cell wells. The final compound concentrations were as follows (nM): 1.5, 4.6, 13.7, 41.2, 123.5, 370.4, 1111.1, 3333.3, 10000. After 24 hours of incubation, the cell culture supernatant was taken, and the VEGFA concentration was determined using an ELISA kit (purchased from abcam). Finally, the reaction was terminated, and the light absorbance value of each well was measured using a microplate reader at a wavelength of […], and IC50 was calculated by GraphPad Prism. Cell Titer-Glo reagent was used to measure cell viability.
In general terms: An ELISA detects its analyte on a solid surface through an enzyme-linked reagent.

Where [3] appears, read: Homo sapiens, 786-0, 24 h, class symbols.
[4] abbreviates: Homo sapiens, 786-0, 24 h, numeric values.

pIC50: −log10 of the molar value. Some results are limits rather than exact numbers.

A word on the pIC50: it is the negative decadic logarithm of the IC50, by convention in mol/L. A lower pIC50 goes with a high IC50. Consider `O[C@H]1c2c(C(F)(F)F)cn(-c3cc(F)cc(F)c3)c2CCC1(F)F` [Example 64, (S)-1-(3,5-difluorophenyl)-5,5-difluoro-3-(trifluoromethyl)-4,5,6,7-tetrahydro-1H-indol-4-ol], for which the pIC50 in assay [1] (class symbols) and in assay [2] (setting [3]) was at least 6.30 in each case.
Consider `N#Cc1cc(-n2cc(C(F)(F)F)c3c2CCC(F)(F)[C@H]3O)ccc1F` [Example 95], for which the pIC50 was 7.42 in assay [1] (numeric values) and 7.84 in assay [2] (numeric values).
For the compound “(4S,5S)-1-(3-(difluoromethyl)-4-fluorophenyl)-5-fluoro-3-(trifluoromethyl)-4,5,6,7-tetrahydro-1H-indol-4-ol and (4R,5R)-1-(3-(difluoromethyl)-4-fluorophenyl)-5-fluoro-3-(trifluoromethyl)-4,5,6,7-tetrahydro-1H-indol-4-ol [Example 103]”, the pIC50 in assay [1] (class symbols) was at least 6.30; in assay [2] (numeric values), 7.36.
For `N#Cc1cc(-c2cc(C(F)(F)F)c3n2CCC(F)(F)[C@H]3O)ccc1F` [Example 70, (S)-5-(7,7-difluoro-8-hydroxyl-1-(trifluoromethyl)-5,6,7,8-tetrahydroindolizin-3-yl)-2-fluorobenzonitrile], the pIC50 is 7.07 in assay [1] (numeric values) and 7.34 in assay [2] (setting [4]).
With `N#Cc1cc(-n2cc(C(F)(F)F)c3c2CCC(F)(F)[C@H]3F)ccc1F` (single isomer, unassigned) [Example 196], the pIC50 in assay [1] (class symbols) and in assay [2] (setting [3]) was at least 6.30 in each case.
Take `N#Cc1cc(-c2cc(C(F)(F)F)c3n2CCC(F)C3O)ccc1F` (stereo not drawn) [Example 75, 2-fluoro-5-(7-fluoro-8-hydroxy-1-(trifluoromethyl)-5,6,7,8-tetrahydroindolizin-3-yl)benzonitrile]: the pIC50 in assay [1] (class symbols) and in assay [2] (setting [3]) was at least 6.30 in each case.
As to `OC1c2c(C(F)(F)F)cn(-c3ccc(F)c(Cl)c3)c2CCC1(F)F` (stereo not drawn) [Example 120, 1-(3-chloro-4-fluorophenyl)-5,5-difluoro-3-(trifluoromethyl)-4,5,6,7-tetrahydro-1H-indol-4-ol], the pIC50 is 7.12 in assay [1] (numeric values) and 7.41 in assay [2] (setting [4]).
Regarding `OC1CCCc2c1c(C(F)(F)F)cn2-c1cc(F)cc(F)c1` (stereo not drawn) [Example 37, 1-(3,5-difluorophenyl)-3-(trifluoromethyl)-4,5,6,7-tetrahydro-1H-indol-4-ol], the pIC50 in assay [1] (class symbols) and in assay [2] (setting [3]) was at least 6.30 each time.
With `[2H][C@]1(O)c2c(C(F)(F)F)cn(-c3ccc(F)c(C#N)c3)c2CCC1(F)F` [Example 200, (S)-5-(5,5-difluoro-4-hydroxyl-3-(trifluoromethyl)-4,5,6,7-tetrahydro-1H-indol-1-yl-4-d)-2-fluorobenzonitrile], the pIC50 is 7.47 in assay [1] (numeric values) and 8.25 in assay [2] (setting [4]).
As to `O[C@H]1c2c(C(F)(F)F)cn(-c3ccc(F)c(C(F)F)c3)c2CCC1(F)F` [Example 173, (S)-1-(3-(difluoromethyl)-4-fluorophenyl)-5,5-difluoro-3-(trifluoromethyl)-4,5,6,7-tetrahydro-1H-indol-4-ol], the pIC50 in assay [1] (numeric values) is 7.80; in assay [2] (setting [4]) it was 7.75.
Regarding `OC1c2c(C(F)(F)F)cn(-c3cc(Cl)cc(Cl)c3)c2CCC1(F)F` (stereo not drawn) [Example 20, 1-(3,5-dichlorophenyl)-5,5-difluoro-3-(trifluoromethyl)-4,5,6,7-tetrahydro-1H-indol-4-ol], the pIC50 in assay [1] (class symbols) and in assay [2] (setting [3]) was at least 6.30 throughout.
With `OC1c2c(C(F)(F)F)cn(-c3ccc(F)c(C(F)F)c3)c2CCC1(F)F` (stereo not drawn) [Example 168, 1-(3-(difluoromethyl)-4-fluorophenyl)-5,5-difluoro-3-(trifluoromethyl)-4,5,6,7-tetrahydro-1H-indol-4-ol], the pIC50 in assay [1] (numeric values) was 7.52; in assay [2] (setting [4]) it was 8.08.
The like results for `N#Cc1cc(-c2cc(C(F)(F)F)c3n2CCC(F)(F)C3O)ccc1F` (stereo not drawn) [Example 69, 5-(7,7-difluoro-8-hydroxyl-1-(trifluoromethyl)-5,6,7,8-tetrahydroindolizin-3-yl)-2-fluorobenzonitrile] were, in that order, 7.17 and 7.35.
On to `O[C@H]1c2c(C(F)(F)F)cn(-c3ccc(F)c(C(F)F)c3)c2CC[C@H]1F` (single isomer, unassigned) [Example 104], for which the pIC50 was 7.66 in assay [1] (numeric values) and 8.21 in assay [2] (setting [4]).
As to `N#Cc1ccc(-n2cc(C(F)(F)F)c3c2CCC(F)(F)C3O)cc1C#N` (stereo not drawn) [Example 125, 4-(5,5-difluoro-4-hydroxy-3-(trifluoromethyl)-4,5,6,7-tetrahydro-1H-indol-1-yl)phthalonitrile], the negative logarithm of the IC50 (pIC50) in assay [1] (class symbols) is at least 6.30; in assay [2] (setting [4]), 7.47.
Turning to `N#Cc1cccc(-n2cc(C(F)(F)F)c3c2CCC(F)(F)C3O)c1` (stereo not drawn) [Example 19, 3-(5,5-difluoro-4-hydroxy-3-(trifluoromethyl)-4,5,6,7-tetrahydro-1H-indol-1-yl)benzonitrile], the pIC50 in assay [1] (class symbols) and in assay [2] (setting [3]) was at least 6.30 throughout.
Turning to `O[C@H]1c2c(-c3cccs3)cn(-c3cc(F)cc(Cl)c3)c2CCC1(F)F` [Example 48, (S)-1-(3-chloro-5-fluorophenyl)-5,5-difluoro-3-(thiophen-2-yl)-4,5,6,7-tetrahydro-1H-indol-4-ol], the figures for the pIC50 in assay [1] (class symbols) and in assay [2] (setting [4]) were at least 6.30 and 7.34, respectively.
For `OC1c2c(C(F)(F)F)cn(-c3cccc(Cl)c3)c2CCC1(F)F` (stereo not drawn) [Example 15, l-(3-chlorophenyl)-5,5-difluoro-3-(trifluoromethyl)-4,5,6,7-tetrahydro-1H-indol-4-ol], the pIC50 in assay [1] (class symbols) is at least 6.30; in assay [2] (setting [4]) it was 7.73.
With `O[C@H]1c2c(C(F)(F)F)cn(-c3cc(F)cc(Cl)c3)c2CCC1(F)F` [Example 116, (S)-1-(3-chloro-5-fluorophenyl)-5,5-difluoro-3-(trifluoromethyl)-4,5,6,7-tetrahydro-1H-indol-4-ol], the pIC50 was 7.27 in assay [1] (numeric values) and 7.56 in assay [2] (setting [4]).
As for `OC1c2c(C(F)(F)F)c(F)n(-c3cc(F)cc(Cl)c3)c2CCC1(F)F` (stereo not drawn) [Example 106, 1-(3-chloro-5-fluorophenyl)-2,5,5-trifluoro-3-(trifluoromethyl)-4,5,6,7-tetrahydro-1H-indol-4-ol], the pIC50 in assay [1] (class symbols) and in assay [2] (setting [3]) was at least 6.30 throughout.
For `N#Cc1cc(-n2cc(C(F)(F)F)c3c2CCC(F)[C@H]3O)ccc1F` (stereo partly drawn) [Example 131, 2-fluoro-5-((4S)-5-fluoro-4-hydroxy-3-(trifluoromethyl)-4,5,6,7-tetrahydro-1H-indol-1-yl)benzonitrile], the pIC50 in assay [1] (class symbols) and in assay [2] (setting [3]) was at least 6.30 each time.
